The source of these data is the NIST ThermoML archive (doi:10.1016/j.tca.2012.11.004).

The conditions of data set [1]: 298.15 K; 101.33 kPa; Liquid; Vibrating tube method.
Data set [2] is described as follows: refractive index (Na D-line) (dimensionless). As to conditions: 101.33 kPa, Liquid, Standard Abbe refractometry.

Numbers after ± are expanded uncertainties.

Broadly, the mass density is the mass of a sample divided by its volume. As usually defined, the refractive index is a measure of how strongly the sample bends light. Regarding `NC=O` [formamide], in data set [1], the mass density is 1129.16 ± 0.16 kg/m3. The refractive index in data set [2] (298.15 K) was determined as 1.4465 ± 0.0007.
The corresponding values for `CN(C)C=O` [dimethylformamide] are 943.9 ± 0.11 kg/m3 and 1.4281 ± 0.0007.
Take `CNC=O` [N-methylformamide]: the mass density in data set [1] was 998.94 ± 0.23 kg/m3. In addition, the refractive index in data set [2] (298.15 K) turned out to be 1.4302 ± 0.0007.
As for `CC(=O)N(C)C` [N,N-dimethylethanamide], the mass density in data set [1] was determined as 936.38 ± 0.08 kg/m3. Moreover, the refractive index in data set [2] (298.1 K) is reported as 1.4358 ± 0.0007.
